Measured values published in US6630496B1, “Inhibitors of phospholipase enzymes” (Genetics Institute LLC, priority 1996, dated 2003).
pIC50: −log10 of the molar value.

Assays:
cPLA2 [1] = biological target: T1, cPLA2 (Homo sapiens, UniProt P47712); test: Soluble substrate assay (LysoPC); type: biochemical; conditions: for IC50: NA = inhibitory activity not detected, read-out: IC50 (μM) Lyso PC
T1 sequence (P47712 1-749): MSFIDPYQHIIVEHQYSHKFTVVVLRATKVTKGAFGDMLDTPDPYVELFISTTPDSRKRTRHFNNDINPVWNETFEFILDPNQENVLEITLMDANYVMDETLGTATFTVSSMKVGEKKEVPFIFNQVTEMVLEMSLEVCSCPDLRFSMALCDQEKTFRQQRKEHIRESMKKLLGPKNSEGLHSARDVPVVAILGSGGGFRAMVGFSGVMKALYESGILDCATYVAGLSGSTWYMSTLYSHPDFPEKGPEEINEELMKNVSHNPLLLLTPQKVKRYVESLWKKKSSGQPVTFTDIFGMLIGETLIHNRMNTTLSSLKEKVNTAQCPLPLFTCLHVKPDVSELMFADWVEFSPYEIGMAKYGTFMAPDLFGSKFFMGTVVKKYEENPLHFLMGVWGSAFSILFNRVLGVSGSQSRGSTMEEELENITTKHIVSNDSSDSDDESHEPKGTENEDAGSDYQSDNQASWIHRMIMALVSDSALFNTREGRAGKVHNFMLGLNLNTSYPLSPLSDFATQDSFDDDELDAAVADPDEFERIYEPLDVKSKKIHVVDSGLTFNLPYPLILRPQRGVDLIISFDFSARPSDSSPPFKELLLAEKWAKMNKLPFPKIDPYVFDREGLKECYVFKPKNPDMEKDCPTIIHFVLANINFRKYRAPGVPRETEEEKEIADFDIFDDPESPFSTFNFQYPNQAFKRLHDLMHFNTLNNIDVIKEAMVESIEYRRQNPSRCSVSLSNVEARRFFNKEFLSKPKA
Experimental: (b) Soluble Substrate Assay (LysoPC)
The lipid was resuspended by vortexing 80 mM Hepes pH 7.5, 1 mM EDTA (1.2×final concentration). A typical assay consisted of lipid suspension (85 μl) to which was added consecutively the inhibitor (5 μl in DMSO) and cPLA2, 200 ng in 80 mM Hepes pH 7.5, 2 mM DTT and […]. This assay was conducted by either the manual assay or automated assay protocol described below.

cPLA2 [2] = biological target: T1, cPLA2; test: Coumarine assay (7-hydroxycoumarinyl 6-heptenoate hydrolysis); type: biochemical; conditions: for IC50: 60 μM 7-hydroxycoumarinyl 6-heptenoate, read-out: IC50 (μM) Coumarine
Experimental: 7-hydroxycoumarinyl 6-heptenoate was used as a monomeric substrate for cPLA2 as reported previously (Huang, Z. et al., 1994, Analytical Biochemistry 222, 110-115). Inhibitors were mixed with 200 μL assay buffer (80 mM Hepes, pH 7.5, 1 mM EDTA) containing 60 μM 7-hydroxycoumarinyl 6-heptenoate. The reaction was initiated by adding 4 μg cPLA2 in 50 μL assay buffer. Hydrolysis of the 7-hydroxycoumarinyl 6-heptenoate ester was monitored in a fluorometer by exciting at 360 nm and monitoring emission at 460 nm. Enzyme activity is proportional to the increasein emission at 460 nm per minute. In the presence of a cPLA2 inhibitor, the rate of increase is less.

| Molecule | IC50 (cPLA2 [1]) [µM] | IC50 (cPLA2 [2]) [µM] | pIC50 (cPLA2 [1]) | pIC50 (cPLA2 [2]) |
| --- | --- | --- | --- | --- |
| 3-(2-(5-Benzyloxy-1-tert-butoxycarbonyl)indolinyl)methylsulfonylacetamidobenzoic Acid [Example 64] | 17.6 | > 64 |  |  |
| 3-(2-(-5-Benzyloxy-1-(2,4-bis(1,1-dimethy)propyl)phenoxyacetyl)indolinyl)methylthioacetamido-4-methylbenzoic Acid [Example 18] | 0.28 | 10 |  |  |
| 3-(N-(2-(-5-Benzyloxy-1-(2,4-bis(1,1-dimethy)propyl)phenoxyacetyl)indolinyl)methylthioethyl)aminobenzoic Acid [Example 69] | 19.4 | 6 |  |  |
| 5-(2-(5-(3,5-Dibromo)benzyloxy-1-(3,5-bis(trifluoromethyl)phenoxyacetyl)indolinyl)methylthioacetamido)benzene-1,3-dicarboxylic Acid [Example 45] | 0.37 | 5 |  |  |
| 5-(2-(-5-Benzyloxy-1-(3,5-bis(trifluoromethyl)phenoxyacetyl)indolinyl)methylthioacetamido)-3-hydroxymethylbenzoic Acid [Example 41] | 2.2 | 22 |  |  |
| 5-(2-(-5-Benzyloxy-1-(3,5-bis(trifluoromethyl)phenoxyacetyl)indolinyl)methylthioacetamido)benzene-1,3-dicarboxylic Acid [Example 38] | 6.9 | > 50 |  |  |
| 5-(2-(-5-Hydroxy-1-(3,5-bis(trifluoromethyl)phenoxyacetyl)indolinyl)methylthioacetamido)benzene-1,3-dicarboxylic Acid [Example 44] | 27 | > 30 |  |  |
| O=C(O)c1ccccc1OCc1cc2cc(OCc3ccccc3)ccc2n1C(=O)OCc1ccccc1 [Example 1, 2-(2-(1-Phenylmethoxycarbonyl-5-phenylmethoxy)indolyl)methoxybenzoic Acid] |  |  | 4.33 |  |
| O=C(O)c1ccc(OCc2cc3cc(OCc4ccccc4)ccc3n2C(=O)OCc2ccccc2)cc1 [Example 2, 4-(2-(1-Phenylmethoxycarbonyl-5-phenylmethoxy)indolyl)methoxybenzoic Acid] |  |  | 5.22 |  |
| O=C(O)c1cccc(OCc2cc3cc(OCc4ccccc4)ccc3n2C(=O)OCc2ccccc2)c1 [Example 3, 3-(2-(1-Phenylmethoxycarbonyl-5-phenylmethoxy)indolyl)methoxybenzoic Acid] |  |  | 5.19 | 4.85 |
| O=C(O)c1cccc(NC(=O)c2cc3cc(OCc4ccccc4)ccc3n2Cc2ccccc2)c1 [Example 5, 3-(2-(1-Benzyl-5-benzyloxy)indolecarboxamido)benzoic Acid] |  |  | 5.37 | 4.28 |
| CCC(C)(C)c1ccc(CCCCn2c(C(=O)Nc3cc(C(=O)O)ccc3OC)cc3cc(OCc4ccccc4)ccc32)c(C(C)(C)CC)c1 [Example 6] |  |  | 5.70 | 5.22 |
| O=C(O)c1cc(NC(=O)c2cc3cc(OCc4ccccc4)ccc3n2Cc2ccc3ccccc3c2)cc(C(=O)O)c1 [Example 7] |  |  | 5.68 | 4.82 |
| CCC(C)(C)c1ccc(OCC(=O)c2c(CSCC(=O)Nc3cc(C(=O)O)ccc3OC)n(C)c3ccc(OC)cc23)c(C(C)(C)CC)c1 [Example 12, 3-(2-(3-(2,4-bis(1,1-Dimethypropyl)phenoxyacetyl)-5-methoxy-1-methyl)indolyl)methylthioacetamido-4-methoxybenzoic Acid] |  |  | 5.40 | 5.00 |
| CCn1c(CSCC(=O)Nc2cc(C(=O)O)ccc2OC)c(C(=O)COc2ccc(C(C)(C)CC)cc2C(C)(C)CC)c2cc(OCc3ccccc3)ccc21 [Example 13] |  |  | 6.30 | 4.92 |
| O=C(O)CSCC1Cc2cc(OCc3ccccc3)ccc2N1C(=O)COc1cc(C(F)(F)F)cc(C(F)(F)F)c1 (stereo not drawn) [Example 37, 2-(5-Benzyloxy-1-(3,5-bis(trifluoromethyl)phenoxyacetyl)indolinyl)methylthioacetic Acid] | 7.6 | > 30 |  |  |
| CN(C)C(=O)c1cc(NC(=O)CSCC2Cc3cc(OCc4ccccc4)ccc3N2C(=O)COc2cc(C(F)(F)F)cc(C(F)(F)F)c2)cc(C(=O)O)c1 (stereo not drawn) [Example 39] | 4.3 | 18 |  |  |
| CC(=O)c1cc(NC(=O)CSCC2Cc3cc(OCc4ccccc4)ccc3N2C(=O)COc2cc(C(F)(F)F)cc(C(F)(F)F)c2)cc(C(=O)O)c1 (stereo not drawn) [Example 40] | 6.2 | 11 |  |  |

| Molecule | IC50 (cPLA2 [1]) [µM] | IC50 (cPLA2 [2]) [µM] | pIC50 (cPLA2 [1]) | pIC50 (cPLA2 [2]) |
| --- | --- | --- | --- | --- |
| CC(O)c1cc(NC(=O)CSCC2Cc3cc(OCc4ccccc4)ccc3N2C(=O)COc2cc(C(F)(F)F)cc(C(F)(F)F)c2)cc(C(=O)O)c1 (stereo not drawn) [Example 42] | 7.8 | 14 |  |  |
| CNC(=O)c1cc(NC(=O)CSCC2Cc3cc(OCc4ccccc4)ccc3N2C(=O)COc2cc(C(F)(F)F)cc(C(F)(F)F)c2)cc(C(=O)O)c1 (stereo not drawn) [Example 43] | 7.1 | 21 |  |  |
| CC(C)(c1ccccc1)c1ccc(OCC(=O)N2c3ccc(OCc4ccccc4)cc3CC2CSCC(=O)Nc2cccc(C(=O)O)c2)c(C(C)(C)c2ccccc2)c1 (stereo not drawn) [Example 56] | 0.47 | 5 |  |  |
| O=C(CSCC1Cc2cc(OCc3ccccc3)ccc2N1C(=O)COc1ccc(C2C=CCC2)cc1C1C=CCC1)Nc1cccc(C(=O)O)c1 (stereo not drawn) [Example 58] | 0.56 | 4 |  |  |
| COc1ccc(C(=O)O)cc1NC(=O)CSCC1Cc2cc(OCc3ccccc3)ccc2N1C(=O)COc1ccc2ccccc2c1 (stereo not drawn) [Example 59, 3-(2-(5-Benzyloxy-1-(2-naphthoxyaceiyl)indolinyl)methylthioacetamido)4-methoxybenzoic Acid] | 8.7 | > 30 |  |  |
| COc1ccc(C(=O)O)cc1NC(=O)CSCC1Cc2cc(OCc3ccccc3)ccc2N1C(=O)COc1ccc(Cc2ccccc2)cc1 (stereo not drawn) [Example 60] | 4.6 | > 30 |  |  |
| CCC(C)(C)c1ccc(OCC(=O)N2c3ccc(OCc4ccccc4)cc3CC2CSCC(=O)O)c(C(C)(C)CC)c1 (stereo not drawn) [Example 66] | 2.3 | 6 |  |  |
| CCC(C)(C)c1ccc(OCC(=O)N2c3ccc(OCc4ccccc4)cc3CC2CSc2ccccc2C(=O)NC)c(C(C)(C)CC)c1 (stereo not drawn) [Example 68] | > 50 | > 50 |  |  |
| C=CCN(C(=O)CSCC1Cc2cc(OCc3ccccc3)ccc2N1C(=O)COc1ccc(C(C)(C)CC)cc1C(C)(C)CC)c1cc(C(=O)O)ccc1OC (stereo not drawn) [Example 71] | 5.9 | 12 |  |  |
| O=C(CSCC1Cc2cc(OCc3ccccc3)ccc2N1CCc1ccncc1)Nc1cccc(C(=O)O)c1 (stereo not drawn) [Example 72] |  | > 64 |  |  |
| O=C(CSCC1Cc2cc(OCc3ccccc3)ccc2N1Cc1ccc2ccccc2c1)Nc1cccc(C(=O)O)c1 (stereo not drawn) [Example 73, 3-(2-(5-Benzyloxy-1-(2-naphthyl)methy)indolinyl)methylthioacetamidobenzoic Acid] | 1.9 | 6 |  |  |
| O=C(CSCC1Cc2cc(OCc3ccccc3)ccc2N1Cc1ccc(C(F)(F)F)cc1C(F)(F)F)Nc1cccc(C(=O)O)c1 (stereo not drawn) [Example 74] | 1.1 | 5 |  |  |
| COc1ccc(C(=O)O)cc1NC(=O)CSCC1Cc2cc(OCc3ccccc3)ccc2N1Cc1ccc(C(F)(F)F)cc1C(F)(F)F (stereo not drawn) [Example 75] | 7 | 6.2 |  |  |
| O=C(O)c1ccccc1SCC1Cc2cc(OCc3ccccc3)ccc2N1Cc1ccc(Cc2ccccc2)cc1 (stereo not drawn) [Example 78] |  | 3 |  |  |
| O=C(O)c1ccc(CN2c3ccc(OCc4ccccc4)cc3CC2COCc2ccc(C(F)(F)F)cc2C(F)(F)F)cc1 (stereo not drawn) [Example 80, 4-(1-(5-Benzyloxy-2-(bis-2,4-trifluoromethyl)benzyloxymethyl)indolinyl)methylbenzoic Acid] |  | 16 |  |  |
| O=C(O)c1ccc(CN2c3ccc(OCc4ccccc4)cc3CC2COCc2ccc3ccccc3c2)cc1 (stereo not drawn) [Example 81] | 3.2 | 15 |  |  |
| O=C(O)c1cc(NC(=O)C2Cc3ccccc3N2Cc2ccc(C(F)(F)F)cc2C(F)(F)F)cc(C(=O)O)c1 (stereo not drawn) [Example 83] | > 50 | > 50 |  |  |
| COc1ccc(COc2ccc3c(c2)CC(CNC(=O)Nc2cc(C(=O)O)cc(C(=O)O)c2)N3Cc2ccc(C(F)(F)F)cc2C(F)(F)F)cc1 (stereo not drawn) [Example 86] |  | 17 |  |  |
